“And” between values parts separate entries of the source, which are not always exact repeats. Identical values can stand only once.
Tests used:
SF767 cells [1] = assay: Cell growth inhibition, SF767; assay type: cell-based, human; set-up: key to Effect (anti-proliferation effect): +: inhibition of cell growth; −: absence of effect; details: for IC50: SF767, sodium salt form
Text: (§1) At this respect, concentrations which inhibit growth of tumour cells (IC50) are lower for the enantiomer S ([−]) in all studied tumour lines (Table 5). […] In all of the cases, the molecules employed were in the form of sodium salt.

HepG2 cells = assay: Cell growth inhibition, HepG2; assay type: cell-based, human; set-up: key to Effect (anti-proliferation effect): +: inhibition of cell growth; −: absence of effect; details: for IC50: HepG2, sodium salt form
Text: as §1

MDA-MB-231 cells = assay: Cell growth inhibition, MDA-MB-231; assay type: cell-based, human; set-up: key to Effect (anti-proliferation effect): +: inhibition of cell growth; −: absence of effect; details: for IC50: MDA-MB-231, sodium salt form
Text: as §1

[2] = Toxicity and side effects (symptoms) in treated tumour-bearing mice; assay type: in vivo; details: for Toxicity: symptoms registered / Toxicity: Behaviour symptoms, percentage of animals / Toxicity: Diarrhoea, percentage of animals: 15 days
Text: This example recounts the study carried out on immuno-depressed mice infected with human glioma (SF767) cells and treated for 15 days (orally) with the indicated dose (Table 3).

[3] = test system: hypertense rats (strain SHR); assay: Systolic arterial pressure in SHR rats; assay type: in vivo; details: 600 mg/kg every 12 h, 15 days, orally
Procedure: B. Effects on arterial pressure: hypertense rats (strain SHR) were treated with 2OHOA racemic (+/−) and its optic isomers [−]2OHOA and [+]2OHOA (600 mg/kg every 12 h, 15 days, orally). […] Values of average±EEM systolic pressure (n=6) are shown.
What is more, we studied the effect of the isomers above on arterial pressure, body weight, and the level of cholesterol, triglycerides and glycemia (glucose in plasma) in SHR rats SHR (FIGS. 8B, 8C and 8D and 8E). […] Similarly, during 1 and 5 days of treatment, rats treated with the racemic loosed 11 gram of weight (approximately a 3% of their body weight), whereas animals of the group treated with enantiomer [−]2OHOA loosed 21 grams and animals of the group treated with enantiomer [+]2OHOA only loosed 7 grams of weight. On the other hand, a higher effect of enantiomer [+]2OHOA in the reduction of triglyceride (TG) and total cholesterol (CHOt) levels was observed (FIG. 8D) At this respect, plasmatic basal levels of TG in SHR rats are of 108 mg/dl and were reduced to 56 mg/dl after 2 weeks treatment […]. On the other hand, treatment with enantiomer [+]2OHOA inducted a reduction of plasmatic TG levels to 47 mg/dl, whereas enantiomer [−]2OHOA only produced a modest reduction to 81 mg/dl. […]

[4] = Triglyceride and total cholesterol levels in SHR rats; assay type: in vivo; details: 600 mg/kg every 12 h, orally; for plasmatic TG levels after treatment: 2 weeks, basal 108 mg/dl; for CHOt levels after treatment: 15 days, basal 73 mg/dl
Procedure: D. Effects on cholesterol and triglyceride levels: SHR rats were treated with 2OHOA racemic (+/−) and its optic isomers [−]2OHOA and [+]2OHOA (600 mg/kg every 12 h, 15 days, orally). […] Values of average±EEM seric levels of lipids expressed as mg/dl (ordinate axis; n=6) are shown.
What is more, we studied the effect of the isomers above on arterial pressure, body weight, and the level of cholesterol, triglycerides and glycemia (glucose in plasma) in SHR rats SHR (FIGS. 8B, 8C and 8D and 8E). […] Similarly, during 1 and 5 days of treatment, rats treated with the racemic loosed 11 gram of weight (approximately a 3% of their body weight), whereas animals of the group treated with enantiomer [−]2OHOA loosed 21 grams and animals of the group treated with enantiomer [+]2OHOA only loosed 7 grams of weight. On the other hand, a higher effect of enantiomer [+]2OHOA in the reduction of triglyceride (TG) and total cholesterol (CHOt) levels was observed (FIG. 8D) At this respect, plasmatic basal levels of TG in SHR rats are of 108 mg/dl and were reduced to 56 mg/dl after 2 weeks treatment […]. On the other hand, treatment with enantiomer [+]2OHOA inducted a reduction of plasmatic TG levels to 47 mg/dl, whereas enantiomer [−]2OHOA only produced a modest reduction to 81 mg/dl. In parallel, levels of CHOt were reduced from 73 mg/dl to 43 mg/dl (racemic), 36 mg/dl (enantiomer [+]2OHOA) and 59 mg/dl (enantiomer [−]2OHOA), respectively.

T98G cells = assay: Levels of SM in cell membranes, T98G; assay type: cell-based, human; details: 200 μM [−]2OHOA
Procedure: (§2) The levels of SM, cultivated in the absence (control) or presence of 200 μM of [−]2OHOA, in normal cell membranes (MRC-5 and IMR90) were measured, and also in several types of tumoral cells (see Table 2). In all cases, we detected that the membranes of tumoral cells have SM levels of about half or a third of that in normal cells (FIG. 1). We can therefore assert that SM concentration is a biomarker which indicates tumorgenesis in human cells. On the other hand, treatments with the molecules of the present invention induce an increase of SM in the tumour cells which is not naturally occurring. […] For example, the spectrophotometry determination of solution fluorescence of the SM levels is a very simple, quick and efficient analysis method (FIG. 1D). Thus, this invention has generated a method for diagnosis for detecting the described pathological processes and pathologies in which there are SM level changes, and also for monitoring the efficiency of the therapy using molecules of the present invention and others of similar activity. Based on this knowledge, this invention also includes kits for diagnosing these diseases.

SF767 cells [5] = assay: Levels of SM in cell membranes, SF767; assay type: cell-based, human
Procedure: (§3) At the same time, we have studied the anti-tumoral effect on these and other tumoral lines (see Table 2). The cells were treated in vehicle (water with 5% ethanol, control) or with compound 2OHOA for 24 hours in a concentration of 200 μM. The values of the ordinate axis represent the average±ESM (error standard mean for a number of experiments n=3-5) of SM levels (percent of total phospholipids), determined by chromatographic processes (followed by spectroscopy and image analysis), as a percentage of the total number of lipids compared with untreated cells (control). […] In addition to the techniques for measuring enzyme activity and levels of SM described above, other techniques have been tested which lead to very similar results as, gas chromatography, confocal microscopy, fluorescence spectroscopy, etc.
(§4) The levels of SM, cultivated in the absence (control) or presence of 200 μM of [−]2OHOA, in normal cell membranes (MRC-5 and IMR90) were measured, and also in several types of tumoral cells (see Table 2). In all cases, we detected that the membranes of tumoral cells have SM levels of about half or a third of that in normal cells (FIG. 1). […] For example, the spectrophotometry determination of solution fluorescence of the SM levels is a very simple, quick and efficient analysis method (FIG. 1D). […]

SF268 cells = assay: Levels of SM in cell membranes, SF268; assay type: cell-based, human; details: SF268, 200 μM [−]2OHOA
Procedure: as §2

1321N1 cells = assay: Levels of SM in cell membranes, 1321N1; assay type: cell-based, human
Procedure: as §3, §4

A549 cells = assay: Levels of SM in cell membranes, A549; assay type: cell-based, human
Procedure: as §3, §4

Jurkat cells = assay: Levels of SM in cell membranes, Jurkat; assay type: cell-based, human
Procedure: as §3, §4

BXPC3 cells = assay: Levels of SM in cell membranes, BXPC3; assay type: cell-based, human; details: BXPC3, 200 μM [−]2OHOA
Procedure: as §2

MRC-5 cells = assay: Levels of SM in cell membranes, MRC-5; assay type: cell-based, human
Procedure: as §3, §4

[6] = test system: Raf, MEK, MAP kinase (ERK1 y ERK2), Akt and EGFR; assay: Immunoblot of phosphorylased signalling proteins; assay type: cell-based, human
Procedure: D: The state of activity (levels of phosphorylased forms) of Akt and EGFR also decreases after incubating with 250 μM of 2OHOA.

Compound | IC50 (SF767 cells [1]) [µM] | IC50 (HepG2 cells) [µM] | IC50 (MDA-MB-231 cells) [µM] | Toxicity: symptoms registered ([2]; 50 mg/kg orally) | Toxicity: symptoms registered ([2]; 75 mg/kg orally) | Toxicity: symptoms registered ([2]; 100 mg/kg orally) | Toxicity: symptoms registered ([2]; 150 mg/kg orally) | Toxicity: Behaviour symptoms, percentage of animals ([2]; 200 mg/kg orally) | Toxicity: Diarrhoea, percentage of animals ([2]; 200 mg/kg orally) | Toxicity: Behaviour symptoms, percentage of animals ([2]; 400 mg/kg orally) | Toxicity: Diarrhoea, percentage of animals ([2]; 400 mg/kg orally) | Toxicity: Behaviour symptoms, percentage of animals ([2]; 600 mg/kg orally) | Toxicity: Diarrhoea, percentage of animals ([2]; 600 mg/kg orally) | effect on systolic arterial pressure [3] | plasmatic TG levels after treatment ([4]; 600 mg/kg) | CHOt levels after treatment ([4]; 600 mg/kg) [mg/dL] | further results
CCCCCCCC/C=C\CCCCCCC(O)C(=O)O (centres unmarked) [[+]2OHOA] [[+]HOOC—HOCH—(CH2)6—(CH═CH—CH2)1—(CH2)6—CH3] | 304 | 76.7 | 328 | No | No | No | No | Behaviour 16% | Diarrhoea 16% | Behaviour 32% | Diarrhoea 16% | Behaviour 50% | Diarrhoea 66% | considerable therapeutic effect but of lower amplitude | 56 mg/dL and 47 mg/dL | 36 | –
CCCCCCCC/C=C\CCCCCCC(O)C(=O)O (centres unmarked) [[−]2OHOA] [[−] HOOC—HOCH—(CH2)6—(CH═CH—CH2)1—(CH2)6—CH3] | 102 | 32.9 | 145 | no side effects and No | No | No | No | – | – | Behaviour 16% | Diarrhoea 16% | Behaviour 50% | Diarrhoea 32% | – | 81 mg/dL | 59 | % SM after treatment (T98G cells): 19%; % SM after treatment (SF767 cells [5]; SF767, 200 μM [−]2OHOA): 24%; % SM after treatment (SF268 cells): 26%; % SM after treatment (1321N1 cells; 1321N1, 200 μM [−]2OHOA): 27%; % SM after treatment (A549 cells; A549, 200 μM [−]2OHOA): 33%; % SM after treatment (Jurkat cells; 200 μM [−]2OHOA): 27%; % SM after treatment (BXPC3 cells): 26%; % SM after treatment (MRC-5 cells; MRC-5 non-tumoral fibroblast, 200 μM [−]2OHOA): 24%; Effect (anti-proliferation effect) (SF767 cells [1]; SF767): +; Effect (anti-proliferation effect) (HepG2 cells; HepG2): +; Effect (anti-proliferation effect) (MDA-MB-231 cells; MDA-MB-231): +; Toxicity: symptoms registered ([2]; 200 mg/kg orally): No
CCCCCCCC/C=C\CCCCCCC(O)C(=O)O (racemic) [2OHOA, 2-hydroxyoleic acid] | – | – | – | No | No | No | No | Behaviour 16% | Diarrhoea 16% | Behaviour 16% | Diarrhoea 32% | Behaviour 50% | Diarrhoea 50% | considerable therapeutic effect but of lower amplitude | – | – | synthesis of SM (SF767 cells [5]; SF767, 200 μM, 24 hours): significant increase; synthesis of SM (1321N1 cells; 1321N1, 200 μM, 24 hours): significant increase; synthesis of SM (A549 cells; A549, 200 μM, 24 hours): significant increase; synthesis of SM (Jurkat cells; 200 μM, 24 hours): significant increase; synthesis of SM (MRC-5 cells; MRC5, 200 μM, 24 hours): not in non-tumoral cells; IC50 (SF767 cells [1]; Homo sapiens): 215 µM; IC50 (HepG2 cells; Homo sapiens): 41.4 µM; IC50 (MDA-MB-231 cells; Homo sapiens): 244 µM; side effects ([2]; 600 mg/kg, 15 days orally): important side effects; CHOt levels after treatment [4]: 43 mg/dL; state of activity (phosphorylased forms) of Akt and EGFR ([6]; 250 μM): decreases; phosphorylased (active) form of Raf and MEK ([6]; 150, 200 o 250 μM): reduction in state of the (active) phosphorylased form of both proteins; state of activity of MAP kinase (ERK1 y ERK2) ([6]; 150, 200 o 250 μM): dramatic reduction in the state of activity

— patent US9359281B2, “Enantiomers of 2-hydroxy derivatives of fatty acids” (UNIVERSITAT DE LES ILLES BALEARS, priority 2011, dated 2016)
